Drawing on patent publication US12037346B2, “Amino-substituted heteroaryls for treating cancers with EGFR mutations” (Nuvalent, Inc., priority 2021, dated 2024), this text covers IC50 and GI50 for 11 molecules.

Ba/F3 HER2-YVMA cells (HER2-A775_G776insYVMA), sequence (P04626 with tags, fused parts or gaps DUP772-775): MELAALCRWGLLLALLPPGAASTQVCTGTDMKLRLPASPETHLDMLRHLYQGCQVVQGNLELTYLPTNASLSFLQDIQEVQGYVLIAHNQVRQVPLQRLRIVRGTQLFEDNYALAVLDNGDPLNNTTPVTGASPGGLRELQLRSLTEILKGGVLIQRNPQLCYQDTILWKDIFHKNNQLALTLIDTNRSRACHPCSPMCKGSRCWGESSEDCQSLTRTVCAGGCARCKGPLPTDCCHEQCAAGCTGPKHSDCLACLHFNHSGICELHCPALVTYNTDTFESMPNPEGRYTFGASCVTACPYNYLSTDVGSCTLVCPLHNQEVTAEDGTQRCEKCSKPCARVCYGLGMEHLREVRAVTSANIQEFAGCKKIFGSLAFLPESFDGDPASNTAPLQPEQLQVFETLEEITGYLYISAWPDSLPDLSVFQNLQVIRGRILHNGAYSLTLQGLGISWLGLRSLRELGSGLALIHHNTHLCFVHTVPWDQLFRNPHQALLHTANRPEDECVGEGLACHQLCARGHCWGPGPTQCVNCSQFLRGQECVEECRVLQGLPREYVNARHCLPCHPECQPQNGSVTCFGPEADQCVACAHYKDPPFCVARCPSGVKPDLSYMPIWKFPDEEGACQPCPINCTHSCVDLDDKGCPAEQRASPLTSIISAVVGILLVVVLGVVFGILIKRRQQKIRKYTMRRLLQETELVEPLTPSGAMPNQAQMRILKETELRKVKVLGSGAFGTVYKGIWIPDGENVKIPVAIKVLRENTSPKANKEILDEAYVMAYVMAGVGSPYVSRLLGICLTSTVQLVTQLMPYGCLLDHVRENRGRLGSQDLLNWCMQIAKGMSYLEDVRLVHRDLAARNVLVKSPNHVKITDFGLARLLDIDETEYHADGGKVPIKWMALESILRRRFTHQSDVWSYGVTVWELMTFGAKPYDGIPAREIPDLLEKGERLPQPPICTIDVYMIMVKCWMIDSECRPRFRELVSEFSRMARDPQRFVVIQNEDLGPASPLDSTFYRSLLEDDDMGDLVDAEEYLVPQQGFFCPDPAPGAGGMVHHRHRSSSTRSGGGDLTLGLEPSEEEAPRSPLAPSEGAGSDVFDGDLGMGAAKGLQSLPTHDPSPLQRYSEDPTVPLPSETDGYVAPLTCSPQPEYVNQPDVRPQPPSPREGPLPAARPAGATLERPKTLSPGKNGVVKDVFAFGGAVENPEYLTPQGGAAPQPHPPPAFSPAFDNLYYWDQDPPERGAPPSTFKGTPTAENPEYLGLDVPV

The first experiment deals with A431 cells (amplification of the wild-type EGFR gene), phospho-ERK Thr202/Tyr204. Description: Cellular phosphorylation assay, pERK (phospho-ERK Thr202/Tyr204 AlphaLISA) in A431. It is filed as cell-based. Conditions: Homo sapiens, A-431, compound incubated for 5 hours. The method, then: (§1) Besides Ba/F3s, two commercially available cell lines were also used. NCI-H1781 is a HER2 exon20 insertion cell line bearing HER2-A775_G776insV-G776C. A431 bears amplification of the wild-type EGFR gene.
(§2) Ba/F3 cells were plated at 50,000 cells/well (40 μL), or NCI-H1781 cells or A431 cells were plated at 12,500 cells/well (40 μL), in a 384-well plate for 1 day. Test compounds (40 nL) were then added in a 3-fold dilution series using the TECAN EV0200 liquid handler and incubated for 5 hours. Only for pEGFR analysis in A431, the cells were briefly stimulated with EGF (30 ng/mL) for 15 minutes. Media were removed using Apricot Designs. Phosphoproteins were analyzed using the phospho-EGFR Tyr1068 AlphaLISA kit (“pEGFR”; PerkinElmer #ALSU-PEGFR-B10K;) phospho-ERK Thr202/Tyr204 AlphaLISA kit (“pERK”; PerkinElmer #ALSU-PERK-A10K) or the phospho-ErbB2 Tyr1221/1222 AlphaLISA kit (“pHER2”; PerkinElmer #ALSU-PEB2-A10K;) according to the manufacturer's instructions. Briefly, cells were lysed with lysis buffer (10 μL) containing protease-inhibitor and phosphatase-inhibitor cocktails. The lysates were transferred into a new optical plate, incubated with the acceptor mix (5 μL) for 1.5-2 hours at room temperature in darkness, and then mixed with the donor mix (5 μL) overnight in darkness. Fluorescence was measured on a plate reader using the appropriate AlphaLISA settings. Half-maximal inhibitory concentration (IC50) was calculated from percent inhibition and inhibitor concentration using four-parameter logistic regression. […]
Molecule `C=CC(=O)N1CCN(c2ccc3ncnc(Nc4ccc(Oc5ccn6ncnc6c5)c(C)c4)c3n2)C[C@H]1C` [Example 6] had an IC50 of 0.1 to 0.5 µM.

In turn, `Cc1cc(Nc2ncnc3ccc(N4CCN(C(=O)/C=C/CN(C)C)CC4)nc23)ccc1Oc1ccn2ncnc2c1` [Example 7] had an IC50 of 0.1 to 0.5 µM.

Take `C=CC(=O)N1CCN(c2ccc3ncnc(Nc4ccc(Oc5ccn6ncnc6c5)c(C)c4)c3n2)C(=O)C1` [Example 8]: the IC50 is not below 1 µM.

In turn, `C=CC(=O)N1CCCN(c2ccc3ncnc(Nc4ccc(Oc5ccn6ncnc6c5)c(C)c4)c3n2)CC1` [Example 14] came in with an IC50 not below 1 µM.

`C=CC(=O)N1CC=C(c2ccc3ncnc(Nc4ccc(Oc5cc(OC)n6ncnc6c5)c(C)c4)c3n2)CC1` [Example 15] came in with an IC50 not below 1 µM.

`C=CC(=O)N1CC=C(c2ccc3ncnc(Nc4ccc(Oc5cc(Cl)n6ncnc6c5)c(C)c4)c3n2)CC1` [Example 16] showed a 50% inhibitory concentration (IC50) of 0.5 to 1 µM.

For `C=CC(=O)N1CC=C(c2ccc3ncnc(Nc4ccc(Oc5cc(C)n6ncnc6c5)c(C)c4)c3n2)CC1` [Example 17], the IC50 is not below 1 µM.

As for `C=CC(=O)N1CCN(c2ccc3ncnc(Nc4ccc(Oc5ccn6ncnc6c5)c(C)c4)c3c2OC)CC1` [Example 20], the IC50 was not below 1 µM.

Take `C=CC(=O)N1CCN(c2ccc3ncnc(Nc4ccc(Oc5ccn6ncnc6c5)c(C)c4)c3n2)[C@@H](C)C1` [Example 22]: the IC50 is 0.5 to 1 µM.

Consider `C=C(F)C(=O)N1CC=C(c2ccc3ncnc(Nc4ccc(Oc5ccn6ncnc6c5)c(C)c4)c3n2)CC1` [Example 31], for which the IC50 was not below 1 µM.

In the case of `C=CC(=O)N1CCN(c2ncc3ncnc(Nc4cc(C)c(Oc5ccn6ncnc6c5)cc4F)c3n2)[C@@H](C)C1` [Example 35], the IC50 is not below 1 µM.

The target in another experiment is T1, wild-type EGFR (A431 cells) (Homo sapiens, UniProt P00533).
T1 construct: A431 bears amplification of the wild-type EGFR gene; endogenous in cells; host or cells: A431
T1 sequence (P00533 25-1210): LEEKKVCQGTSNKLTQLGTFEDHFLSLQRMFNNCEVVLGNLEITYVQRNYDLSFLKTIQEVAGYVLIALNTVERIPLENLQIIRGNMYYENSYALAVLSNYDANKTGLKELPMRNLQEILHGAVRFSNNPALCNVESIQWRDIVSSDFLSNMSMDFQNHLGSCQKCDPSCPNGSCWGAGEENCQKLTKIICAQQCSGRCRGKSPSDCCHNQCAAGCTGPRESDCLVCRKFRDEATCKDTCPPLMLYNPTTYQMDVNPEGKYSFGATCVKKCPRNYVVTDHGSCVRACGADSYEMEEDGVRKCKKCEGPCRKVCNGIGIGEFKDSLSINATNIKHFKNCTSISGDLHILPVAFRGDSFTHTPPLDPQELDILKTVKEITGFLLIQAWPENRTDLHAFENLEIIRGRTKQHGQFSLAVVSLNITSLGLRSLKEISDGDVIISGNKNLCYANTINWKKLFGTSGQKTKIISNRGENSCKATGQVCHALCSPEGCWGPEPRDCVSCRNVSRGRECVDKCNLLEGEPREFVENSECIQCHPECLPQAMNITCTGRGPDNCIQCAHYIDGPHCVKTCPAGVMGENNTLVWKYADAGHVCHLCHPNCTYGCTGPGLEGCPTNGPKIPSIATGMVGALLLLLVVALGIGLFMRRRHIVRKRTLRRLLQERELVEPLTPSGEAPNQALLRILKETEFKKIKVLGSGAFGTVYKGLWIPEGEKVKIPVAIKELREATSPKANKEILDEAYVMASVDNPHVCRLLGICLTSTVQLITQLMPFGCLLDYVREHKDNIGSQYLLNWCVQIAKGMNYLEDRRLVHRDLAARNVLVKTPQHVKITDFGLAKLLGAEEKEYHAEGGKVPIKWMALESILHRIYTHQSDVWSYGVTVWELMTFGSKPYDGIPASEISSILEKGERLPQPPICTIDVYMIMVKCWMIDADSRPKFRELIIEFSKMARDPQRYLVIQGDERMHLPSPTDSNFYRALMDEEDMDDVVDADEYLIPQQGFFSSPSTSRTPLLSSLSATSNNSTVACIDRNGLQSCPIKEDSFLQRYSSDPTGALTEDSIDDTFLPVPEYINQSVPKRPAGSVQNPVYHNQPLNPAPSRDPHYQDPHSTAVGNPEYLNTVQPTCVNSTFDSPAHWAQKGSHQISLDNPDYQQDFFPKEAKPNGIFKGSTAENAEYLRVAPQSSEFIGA
Kind of experiment: Cellular phosphorylation assay, pEGFR (phospho-EGFR Tyr1068 AlphaLISA) in A431. It is filed as cell-based. Conditions: compound incubated for 5 hours, EGF (30 ng/mL) for 15 minutes. The method, then:
as §1, §2
For `C=CC(=O)N1CCN(c2ccc3ncnc(Nc4ccc(Oc5ccn6ncnc6c5)c(C)c4)c3n2)C[C@H]1C` [Example 6], the IC50 fell in the range of 0.1 to 0.5 µM.

Take `Cc1cc(Nc2ncnc3ccc(N4CCN(C(=O)/C=C/CN(C)C)CC4)nc23)ccc1Oc1ccn2ncnc2c1` [Example 7]: the IC50 fell in the range of 0.1 to 0.5 µM.

For `C=CC(=O)N1CCN(c2ccc3ncnc(Nc4ccc(Oc5ccn6ncnc6c5)c(C)c4)c3n2)C(=O)C1` [Example 8], the 50% inhibitory concentration (IC50) is not below 1 µM.

In turn, `C=CC(=O)N1CCCN(c2ccc3ncnc(Nc4ccc(Oc5ccn6ncnc6c5)c(C)c4)c3n2)CC1` [Example 14] showed a 50% inhibitory concentration (IC50) not below 1 µM.

On to `C=CC(=O)N1CC=C(c2ccc3ncnc(Nc4ccc(Oc5cc(OC)n6ncnc6c5)c(C)c4)c3n2)CC1` [Example 15], for which the IC50 is not below 1 µM.

In turn, `C=CC(=O)N1CC=C(c2ccc3ncnc(Nc4ccc(Oc5cc(Cl)n6ncnc6c5)c(C)c4)c3n2)CC1` [Example 16] showed a half-inhibitory concentration (IC50) of 0.5 to 1 µM.

Take `C=CC(=O)N1CC=C(c2ccc3ncnc(Nc4ccc(Oc5cc(C)n6ncnc6c5)c(C)c4)c3n2)CC1` [Example 17]: the half-inhibitory concentration (IC50) is not below 1 µM.

`C=CC(=O)N1CCN(c2ccc3ncnc(Nc4ccc(Oc5ccn6ncnc6c5)c(C)c4)c3c2OC)CC1` [Example 20]: the IC50 was not below 1 µM.

On to `C=CC(=O)N1CCN(c2ccc3ncnc(Nc4ccc(Oc5ccn6ncnc6c5)c(C)c4)c3n2)[C@@H](C)C1` [Example 22], for which the IC50 is not below 1 µM.

`C=C(F)C(=O)N1CC=C(c2ccc3ncnc(Nc4ccc(Oc5ccn6ncnc6c5)c(C)c4)c3n2)CC1` [Example 31] gave an IC50 not below 1 µM.

Take `C=CC(=O)N1CCN(c2ncc3ncnc(Nc4cc(C)c(Oc5ccn6ncnc6c5)cc4F)c3n2)[C@@H](C)C1` [Example 35]: the IC50 is not below 1 µM.

For the next experiment, the target named is T2, HER2-A775_G776insV-G776C (NCI-H1781 cells) (Homo sapiens, UniProt P04626, G776C/INS775V).
T2 construct: NCI-H1781 is a HER2 exon20 insertion cell line bearing HER2-A775_G776insV-G776C; endogenous in cells; host or cells: NCI-H1781
T2 sequence (P04626 with tags, fused parts or gaps INS775V/G776C): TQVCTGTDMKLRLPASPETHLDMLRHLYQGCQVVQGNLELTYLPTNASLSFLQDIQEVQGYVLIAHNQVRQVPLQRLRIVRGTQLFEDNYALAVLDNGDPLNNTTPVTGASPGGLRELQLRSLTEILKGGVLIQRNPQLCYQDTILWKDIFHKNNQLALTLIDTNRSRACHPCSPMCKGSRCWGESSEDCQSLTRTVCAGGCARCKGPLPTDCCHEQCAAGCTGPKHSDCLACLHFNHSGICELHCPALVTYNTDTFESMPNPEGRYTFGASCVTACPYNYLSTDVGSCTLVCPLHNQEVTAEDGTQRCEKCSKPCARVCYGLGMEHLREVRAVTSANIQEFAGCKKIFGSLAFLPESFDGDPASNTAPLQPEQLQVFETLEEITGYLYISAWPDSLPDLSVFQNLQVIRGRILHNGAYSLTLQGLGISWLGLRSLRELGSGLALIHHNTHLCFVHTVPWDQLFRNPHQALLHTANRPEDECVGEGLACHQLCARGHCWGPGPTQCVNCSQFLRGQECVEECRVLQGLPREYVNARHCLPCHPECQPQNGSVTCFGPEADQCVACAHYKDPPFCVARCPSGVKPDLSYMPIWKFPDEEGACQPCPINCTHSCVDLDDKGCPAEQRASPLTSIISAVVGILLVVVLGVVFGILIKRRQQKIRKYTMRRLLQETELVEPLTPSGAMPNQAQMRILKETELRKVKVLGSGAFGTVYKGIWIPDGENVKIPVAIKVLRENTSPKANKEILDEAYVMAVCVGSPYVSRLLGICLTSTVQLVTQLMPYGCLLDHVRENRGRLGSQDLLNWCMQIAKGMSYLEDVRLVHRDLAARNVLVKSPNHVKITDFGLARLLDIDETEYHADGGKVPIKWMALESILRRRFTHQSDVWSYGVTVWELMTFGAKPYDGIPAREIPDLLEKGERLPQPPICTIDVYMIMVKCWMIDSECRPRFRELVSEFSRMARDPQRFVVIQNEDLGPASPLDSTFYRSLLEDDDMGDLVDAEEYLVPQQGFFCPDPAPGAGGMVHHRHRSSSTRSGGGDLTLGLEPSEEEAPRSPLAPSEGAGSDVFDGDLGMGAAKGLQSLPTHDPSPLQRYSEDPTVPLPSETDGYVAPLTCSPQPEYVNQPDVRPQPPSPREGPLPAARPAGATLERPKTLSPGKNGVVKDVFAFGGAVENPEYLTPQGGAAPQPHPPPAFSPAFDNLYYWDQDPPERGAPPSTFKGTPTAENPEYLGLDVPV
Description: Cellular phosphorylation assay, pHER2 (phospho-ErbB2 Tyr1221/1222 AlphaLISA) in NCI-H1781. It counts as cell-based. Conditions: compound incubated for 5 hours. On the procedure: as §1
Ba/F3 cells were plated at 50,000 cells/well (40 μL), or NCI-H1781 cells or A431 cells were plated at 12,500 cells/well (40 μL), in a 384-well plate for 1 day. Test compounds (40 nL) were then added in a 3-fold dilution series using the TECAN EV0200 liquid handler and incubated for 5 hours. Only for pEGFR analysis in A431, the cells were briefly stimulated with EGF (30 ng/mL) for 15 minutes. Media were removed using Apricot Designs. Phosphoproteins were analyzed using the phospho-EGFR Tyr1068 AlphaLISA kit (“pEGFR”; PerkinElmer #ALSU-PEGFR-B10K;) phospho-ERK Thr202/Tyr204 AlphaLISA kit (“pERK”; PerkinElmer #ALSU-PERK-A10K) or the phospho-ErbB2 Tyr1221/1222 AlphaLISA kit (“pHER2”; PerkinElmer #ALSU-PEB2-A10K;) according to the manufacturer's instructions. Briefly, cells were lysed with lysis buffer (10 μL) containing protease-inhibitor and phosphatase-inhibitor cocktails. The lysates were transferred into a new optical plate, incubated with the acceptor mix (5 μL) for 1.5-2 hours at room temperature in darkness, and then mixed with the donor mix (5 μL) overnight in darkness. Fluorescence was measured on a plate reader using the appropriate AlphaLISA settings. Half-maximal inhibitory concentration (IC50) was calculated from percent inhibition and inhibitor concentration using four-parameter logistic regression.
HER2 is phosphorylated when activated. Therefore, phospho-HER2 indicates HER2 activity in the cells.
`C=CC(=O)N1CCCN(c2ccc3ncnc(Nc4ccc(Oc5ccn6ncnc6c5)c(C)c4)c3n2)CC1` [Example 14] yielded an IC50 of less than 0.1 µM.

The target of a further experiment is Ba/F3 HER2-YVMA cells (HER2-A775_G776insYVMA) (Homo sapiens, UniProt P04626, DUP772-775, cells depend on it). Description: Cell proliferation assay (CellTiter-Glo), Ba/F3 HER2-YVMA. Conditions: read-out: Ba/F3 HER2-YVMA cell proliferation IC50. It is filed as cell-based. On the procedure:
The gene encoding HER2-A775_G776insYVMA (“HER2-YVMA”) was synthesized at GeneRay, cloned into the retroviral construct pMSCV-puro (Biovector), and packaged into retroviral particles. The virus was used to infect Ba/F3 cells (RIKEN) at multiplicity of infection=1 or 10 for 1 day. Infected cells were rescued in media (RPMI-1640 with 10% fetal bovine serum and 1% streptomycin and penicillin) supplemented with mouse IL-3 (10 ng/mL) for 2 days, and stable cell lines were selected by IL-3 withdrawal and puromycin (0.8 μg/mL) for 7 days. Monoclones were selected by single-cell dilution in IL-3-free medium containing puromycin ([…]). Transformation of desired genes was confirmed by Sanger sequencing and western blot using the following antibody: HER2 (CST #2242).
(§3) Ba/F3 cells were plated at 1,000 cells/well (40 μL), or NCI-H1781 or A431 cells were plated at 2,000 cells/well (40 μL), in a 384-well plate for 1 day. Test compounds (40 nL) were then added in a 3-fold dilution series using the TECAN EV0200 liquid handler and incubated for 48 hours (“2 days”), 72 hours (“3 days”), or 48 hours followed by renewal of compound solutions and further incubation for 72 hours (“2 days/3 days”). The 72-hour assay was necessary for NCI-H1781 cells, which are slow-growing, and the resupply of fresh compounds on day 3 obviated the potential confounding effects arising from compound degradation in cell media over 72 hours. Plates were equilibrated at room temperature for 15 minutes followed by addition of 40 μL CellTiter-Glo reagent (Promega). Luminescence was measured on a plate reader. Half-maximal inhibitory concentration (IC50) was calculated from percent inhibition and inhibitor concentration using four-parameter logistic regression. […] In these cases, the regression curve was drawn only for the first inflexion to accurately measure on-target growth inhibitory effect.
(§4) Ba/F3, NCI-H1781, and A431 proliferation is driven by the oncogenes in the same way that cancer cell proliferation in humans is driven by the expression of equivalent oncogenes.
As for `C=CC(=O)N1CCN(c2ccc3ncnc(Nc4ccc(Oc5ccn6ncnc6c5)c(C)c4)c3n2)C[C@H]1C` [Example 6], the GI50 is less than 0.1 µM.

Consider `Cc1cc(Nc2ncnc3ccc(N4CCN(C(=O)/C=C/CN(C)C)CC4)nc23)ccc1Oc1ccn2ncnc2c1` [Example 7], for which the GI50 is less than 0.1 µM.

With `C=CC(=O)N1CCN(c2ccc3ncnc(Nc4ccc(Oc5ccn6ncnc6c5)c(C)c4)c3n2)C(=O)C1` [Example 8], the GI50 was less than 0.1 µM.

Turning to `C=CC(=O)N1CCCN(c2ccc3ncnc(Nc4ccc(Oc5ccn6ncnc6c5)c(C)c4)c3n2)CC1` [Example 14], the GI50 was in the range of 0.1 to 0.5 µM.

Turning to `C=CC(=O)N1CC=C(c2ccc3ncnc(Nc4ccc(Oc5cc(OC)n6ncnc6c5)c(C)c4)c3n2)CC1` [Example 15], the GI50 was less than 0.1 µM.

Consider `C=CC(=O)N1CC=C(c2ccc3ncnc(Nc4ccc(Oc5cc(Cl)n6ncnc6c5)c(C)c4)c3n2)CC1` [Example 16], for which the GI50 was less than 0.1 µM.

Regarding `C=CC(=O)N1CC=C(c2ccc3ncnc(Nc4ccc(Oc5cc(C)n6ncnc6c5)c(C)c4)c3n2)CC1` [Example 17], the GI50 was less than 0.1 µM.

Consider `C=CC(=O)N1CCN(c2ccc3ncnc(Nc4ccc(Oc5ccn6ncnc6c5)c(C)c4)c3c2OC)CC1` [Example 20], for which the GI50 is less than 0.1 µM.

For the molecule `C=CC(=O)N1CCN(c2ccc3ncnc(Nc4ccc(Oc5ccn6ncnc6c5)c(C)c4)c3n2)[C@@H](C)C1` [Example 22], the GI50 was less than 0.1 µM.

For the molecule `C=C(F)C(=O)N1CC=C(c2ccc3ncnc(Nc4ccc(Oc5ccn6ncnc6c5)c(C)c4)c3n2)CC1` [Example 31], the GI50 was not below 1 µM.

Regarding `C=CC(=O)N1CCN(c2ncc3ncnc(Nc4cc(C)c(Oc5ccn6ncnc6c5)cc4F)c3n2)[C@@H](C)C1` [Example 35], the GI50 is less than 0.1 µM.

Another experiment has as its system NCI-H1781 cells (HER2-A775_G776insV-G776C). Description: Cell proliferation assay (CellTiter-Glo), NCI-H1781. It counts as cell-based. To be noted: first inflexion of biphasic curve. The method, then: as §1, §3, §4
The molecule `C=CC(=O)N1CCN(c2ccc3ncnc(Nc4ccc(Oc5ccn6ncnc6c5)c(C)c4)c3n2)C[C@H]1C` [Example 6] returned an IC50 of less than 0.1 µM.

`Cc1cc(Nc2ncnc3ccc(N4CCN(C(=O)/C=C/CN(C)C)CC4)nc23)ccc1Oc1ccn2ncnc2c1` [Example 7] came in with an IC50 of less than 0.1 µM.

As to `C=CC(=O)N1CCN(c2ccc3ncnc(Nc4ccc(Oc5ccn6ncnc6c5)c(C)c4)c3n2)C(=O)C1` [Example 8], the IC50 was less than 0.1 µM.

Take `C=CC(=O)N1CC=C(c2ccc3ncnc(Nc4ccc(Oc5cc(OC)n6ncnc6c5)c(C)c4)c3n2)CC1` [Example 15]: the IC50 lay in the range of 0.1 to 0.5 µM.

Molecule `C=CC(=O)N1CC=C(c2ccc3ncnc(Nc4ccc(Oc5cc(Cl)n6ncnc6c5)c(C)c4)c3n2)CC1` [Example 16] had a half-maximal inhibitory concentration (IC50) of 0.1 to 0.5 µM.

As for `C=CC(=O)N1CC=C(c2ccc3ncnc(Nc4ccc(Oc5cc(C)n6ncnc6c5)c(C)c4)c3n2)CC1` [Example 17], the concentration for half-maximal inhibition (IC50) was less than 0.1 µM.

In turn, `C=CC(=O)N1CCN(c2ccc3ncnc(Nc4ccc(Oc5ccn6ncnc6c5)c(C)c4)c3c2OC)CC1` [Example 20] gave an IC50 of less than 0.1 µM.

With `C=CC(=O)N1CCN(c2ccc3ncnc(Nc4ccc(Oc5ccn6ncnc6c5)c(C)c4)c3n2)[C@@H](C)C1` [Example 22], the IC50 was less than 0.1 µM.

Take `C=C(F)C(=O)N1CC=C(c2ccc3ncnc(Nc4ccc(Oc5ccn6ncnc6c5)c(C)c4)c3n2)CC1` [Example 31]: the half-maximal inhibitory concentration (IC50) was not below 1 µM.

As for `C=CC(=O)N1CCN(c2ncc3ncnc(Nc4cc(C)c(Oc5ccn6ncnc6c5)cc4F)c3n2)[C@@H](C)C1` [Example 35], the IC50 lay within 0.1 to 0.5 µM.
